From article PMC3401907, “Cellular Uptakes, Biostabilities and Anti-miR-210 Activities of Chiral Arginine-PNAs in Leukaemic K562 Cells” (Chembiochem, 2012)

Assays:
[1] = system: miR-210; experiment: miR-210 content by RT-qPCR analysis; type: cell-based, human; conditions: K562 cells, 24 h; for inhibition of miR-210 bioavailability (miR-210 content): PNA 2 μM, Figure 5 A and B, relative to pept-1
Protocol: K562 cells were treated with 15 nM mithramycin in the presence of a PNA (2 μM), and after 24 h RNA was isolated and miR-210 was assayed by RT-qPCR analysis. This type of test has been used to evaluate miR content in many studies because it allows the free-miR content to be evaluated. […] Figure 5 A and B reports the obtained data, showing that inhibition of miR bioavailability was induced both with the modified PNA and with the peptide-conjugated one, whereas in the case of PNA1 it was unchanged. […] This might be related to inhibition of pre-miR maturation or to unavailability of the miR to the qRT-PCR analysis due to strong complexation with the PNA. In either case the bioavailability of the miR for targeting other genes should be reduced.
Transfection procedures: Anti-miR-210 PNAs were directly added to the cellular medium to reach the indicated final concentrations. K562 cells were cultured in 24-well plates starting from the initial density of 30 000 cells per mL. MTH was administrated together with anti-miR PNAs.
RNA extraction: Cells were isolated by centrifugation at 1500 rpm for 10 min at 4 °C, washed in PBS and lysed in Tri-reagent (Sigma–Aldrich) according to the manufacturer's instructions. The isolated RNA was washed once with cold ethanol (75 %), dried and dissolved in ultrapure nuclease-free water.
Real-time quantitative PCR: For microRNA quantification with real-time RT-PCR reagents, the primers and probes were obtained from Applied Biosystems. Reverse transcriptase (RT) reactions were performed with a TaqMan MicroRNA Reverse Transcription Kit (Applied Biosystems) for hsa-miR-210, hsa-miR-10a, hsa-miR-93, hsa-miR-99b, hsa-miR-126, hsa-miR-149, hsa-miR-424, hsa-miR-483-5p, hsa-miR-625, hsa-let-7c and the iQTM5 real-time PCR System Instrument (Bio-Rad). Relative expression was calculated by the comparative cycle threshold method and U6 microRNA was used as reference gene to normalise all RNA samples, because it is constant in the assayed samples by miR-profiling and quantitative RT-PCR analysis as previously reported.[25]

[2] = system: K562 cells; experiment: Mithramycin-induced erythroid differentiation (benzidine-positive cells); type: cell-based, human; conditions: MTH 15 nM, PNA 2 μM, benzidine-positive cells after 5 days of induction, three independent experiments
Protocol: In order to evaluate effects on mithramycin-induced cellular differentiation, K562 cells were treated with MTH in the presence of pept-1, PNA1, PNA2 and PNA4 (each 2 μM). The proportions of benzidine-positive cells were determined after 5 days of induction.
Human cell lines and culture conditions: Human leukaemia K562 cells were cultured under humidified CO2 (5 %)/air in RPMI 1640 medium (Sigma) supplemented with foetal bovine serum (FBS, 10 %, Analitical de Mori, Milan, Italy), penicillin (50 units mL^−1) and streptomycin (50 μg mL^−1).[26] Mithramycin (MTH) was from Sigma. Stock solutions of MTH (100 μM) were stored at −20 °C in the dark and diluted immediately before use. Treatment of K562 cells with MTH was carried out by addition of the appropriate drug concentrations at the beginning of the cultures (cells were seeded at 30 000 mL^−1). The medium was not changed during the induction period. To determine antiproliferative activity, cell growth was studied by determining the cell number per mL with a Z1 Coulter Counter (Coulter Electronics, Hialeah, FL, USA). Erythroid differentiated K562 cells containing haemoglobin were detected by specific reaction with a benzidine/hydrogen peroxide solution as reported elsewhere.[26] The final concentration of benzidine was 0.2 % in glacial acetic acid (5 M) and H2O2 (10 %).

[3] = system: RNA1 (target region of miR-210); experiment: Melting temperature (Tm) of PNA:RNA duplexes, full-match RNA; type: binding; conditions: UV absorbance at 260 nm, strand concentration 5 μM; for Tm, RNA1 in water: PBS buffer pH 7, no urea; for Tm, RNA1 in urea (5 M): PBS buffer pH 7 with urea 5 M
Protocol: (§1) Measurements of Tm values: The Tm values were determined with a Lambda Bio 20 spectrophotometer and a Peltier PTP6 temperature programmer. Thermal denaturation profiles were measured by monitoring the absorbance at 260 nm from 18 to 90 °C with a heating rate of 1 °C min^−1 and recording every 0.1 °C. […]

[4] = system: γ-globin gene expression; experiment: γ-globin gene expression by RT-qPCR; type: cell-based, human; conditions: mithramycin-treated (15 nM) K562 cells, PNA 2 μM single administration, 72 h, n=3
Protocol: The strong inhibition of miR-210 by PNA2 and PNA4 might thus result in appreciable reduction of γ-globin gene expression.
Figure 6 A) Effects of pept-1, PNA1, PNA2 and PNA4 molecules (each 2 μM) on γ-globin content in K562 cell cultures for 72 h with MTH (15 nM). Data are reported as arbitrary units relative to cells treated with pept-1 and MTH (average±SD, n=3, *: p<0.05, **: p<0.01). B), C) Effects of treatment (72 h) with pept-1, PNA1, PNA2 and PNA4 molecules on K562 cells induced to erythroid differentiation by MTH (15 nM): B) summary of three independent experiments, C) a representative experiment showing staining of the cells with benzidine.
The nucleotide sequences used for real-time qPCR analysis of γ-globin mRNAs were γ-globin forward primer (5′-TGGCAA GAAGGT GCTGAC TTC-3′), γ-globin reverse primer (5′-TCACTC AGCTGG GCAAAG G-3′) and γ-globin probe (5′-FAM-TGGGAG ATGCCA TAAAGC ACCTGG-TAMRA-3′).[25] The relative expression was calculated by the comparative cycle threshold method with endogenous control human 18S rRNA as reference genes.[25]

[5] = system: RNA2 (mismatched RNA, G→U); experiment: Melting temperature (Tm) of PNA:RNA duplexes, single-mismatch RNA; type: binding; conditions: UV absorbance at 260 nm, PBS buffer pH 7 with urea 5 M, strand concentration 5 μM
Description: (§2) Sequence selectivity is a very important issue in view of the use of PNAs in cellular systems, because partial hybridisation might occur with other unrelated miRNAs or, most importantly, with mRNA targets. We analysed the sequence selectivities of our PNAs with stricter models (DNA2 and RNA2) involving single base mismatches (G→T or G→U) located in the middle of the target sequences. In each case the sequence selectivity was confirmed by significant lowering of the melting temperature. The ranges of ΔTm due to the presence of these single mismatches were 8–21 °C for DNA, with the maximum drop in the case of PNA4 and the minimum observed in that of PNA6. For the latter it should be considered that the mismatch was facing the last chiral monomer, preventing the cooperative effect observed in the case of 2D-modifed highly constrained PNA.[22]
(§3) Measurements of Tm values: The Tm values were determined with a Lambda Bio 20 spectrophotometer and a Peltier PTP6 temperature programmer. Thermal denaturation profiles were measured by monitoring the absorbance at 260 nm from 18 to 90 °C with a heating rate of 1 °C min^−1 and recording every 0.1 °C. Measurement conditions: [PNA]=[DNA] or [RNA]=5 μM in PBS buffer [pH 7.0, NaCl (100 mM), NaH2PO4⋅H2O (10 mM), EDTA (0.1 mM)] with urea (5 M).

[6] = system: miR-210; conditions: cited from earlier work; for anti-miR activity: K562 cells, previously demonstrated
Description: (§4) The first step necessary to achieve anti-miR activity in cells is effective cellular uptake.

[7] = system: K562 cells; conditions: previously demonstrated; cited from earlier work
Description: as §4

[8] = system: DNA1 (full-match antiparallel DNA); experiment: Melting temperature (Tm) of PNA:DNA duplexes, full-match DNA; type: binding; conditions: UV absorbance at 260 nm, strand concentration 5 μM; for Tm, DNA1 in urea (5 M): PBS buffer pH 7 (NaCl 100 mM, NaH2PO4 10 mM, EDTA 0.1 mM) with urea 5 M; for Tm, DNA1 in water: PBS buffer pH 7, no urea, 18 to 90 °C at 1 °C/min
Protocol: as §1

[9] = system: DNA2 (mismatched DNA, G→T); experiment: Melting temperature (Tm) of PNA:DNA duplexes, single-mismatch DNA; type: binding; conditions: single mismatch; UV absorbance at 260 nm, PBS buffer pH 7 with urea 5 M, strand concentration 5 μM
Description: as §2, §3

[10] = system: K562 cells; conditions: cited from earlier work
Protocol: In order to determine the distributions of PNAs within target cells, analysis was performed with a fluorescence microscope. […] Low uptake was also found by fluorescence microscopy with PNA1.[25]

| Substance | miR-210 inhibition upon treatment with mithramycin ([1]; PNA 2 μM with MTH 15 nM, relative to pept-1 and MTH) | inhibition of miR-210 bioavailability (miR-210 content) [1] | effect on MTH-induced erythroid differentiation [2] | Tm, RNA1 in water [3] | Tm, RNA1 in urea (5 M) [3] | effect on γ-globin gene expression [4] | Tm, RNA2 in urea (5 M) [5] | anti-miR activity [6] | selectivity of miR-210 inhibition versus other miRs ([6]; previously found) | internalisation within K562 cells [7] | Tm, DNA1 in urea (5 M) [8] | Tm, DNA1 in water [8] | Tm, DNA2 in urea (5 M) [9] | uptake by fluorescence microscopy [10] |
| --- | --- | --- | --- | --- | --- | --- | --- | --- | --- | --- | --- | --- | --- | --- |
| H-R8CCGCTGTCACACGCACAG-NH2 [PNA2, 18-mer anti-miR-210 PNA conjugated with octaarginine (R8) peptide, reference compound] | best results | Stronger inhibition | able to inhibit erythroid differentiation | >90 °C | 88 °C | inhibited γ-globin gene expression | 73 °C | pronounced anti-miR activity | inhibit miR-210 selectively | efficiently internalised | 80 °C | >90 °C | 68 °C |  |
| H-CCGCTGTCACACGCACAG-NH2 [PNA1, unmodified achiral "naked" 18-mer PNA targeted against miR-210, reference compound] |  | unchanged |  | 88 °C | 77 °C | did not show appreciable effects | 62 °C | no activity |  |  | 70 °C | 85 °C | 58 °C | Low uptake |
